Data taken from PMC4640066 (Nature Communications, 2015).

Legend:
[1] = tested on: HeLa cells; assay: γ-Tubulin localization on centrosomes; assay type: cell-based, human; conditions: interphase and mitotic HeLa cells, 6 h
Experimental: Supplementary Figure 8. Impact of gatastatin on γ-tubulin localization in HeLa cells (a-d) γ-Tubulin localization on centrosome in gatastatin treated HeLa cells. (a) Gatatstatin-treated interphase cells (for 6 h) were analyzed. Red, green and blue in the merged image represent pericentrin, γ-tubulin and DNA, respectively. Scale bar, 5 µm. (b) The γ-tubulin signal around pericentrin in (a) was calculated using ImageJ software from 250 (control) and 166 (gatastatin) centrosomes. Error bars represent S.D. Two-tailed, un-paired Student’s t-test was used to obtain P values. (c) Gatatstatin-treated mitotic cells (for 6 h) were analyzed. Red, green and blue in the merged image represent pericentrin, γ-tubulin and DNA, respectively.
Scale bar, 5 µm. (d) The γ-tubulin signal on pericentrin in (c) was calculated using ImageJ software from 59 (control) and 98 (gatastatin) centrosomes. Error bars represent S.D. Two-tailed, un-paired Student’s t-test was used to obtain P values. γ-Tubulin and pericentrin antibodies were purchased from Sigma (GTU-88, Cat# T6557) and Abcam (Cat# ab4448), respectively.
(1 picture or pasted object on this page, not shown here)

[2] = tested on: HeLa cells expressing EB3-EGFP (interphase); assay: EB3-EGFP signal tracking, interphase cells; assay type: cell-based, human; conditions: 15 min; for Track length / Track lifetime / Velocity: interphase HeLa EB3-EGFP, mean±s.d.; for Track numbers: interphase, from a 144-μm^2 area inside the cell
Experimental: A HeLa ‘Kyoto' cell line stably expressing EB3-EGFP (a kind gift from Dr J. Ellenberg) was maintained in DMEM+GlutaMAX (Gibco) supplemented with 10% FBS, 2 mM L-glutamine, 100 U ml^−1 penicillin, 100 μg ml^−1 streptomycin, 1 mM sodium pyruvate and 0.5 mg ml^−1 G418. Cells were seeded into eight-well Lab-Tek chambers (Nunc, Rochester, NY) for 24-h prior imaging. For imaging, the medium was exchanged to Live Cell Imaging Solution (Molecular Probes Life Technologies) supplemented as described above and containing various concentrations of AG1 or gatastatin. Interphase cells were incubated with drugs for 15 min and mitotic cells were treated as described in Fig. 4c. Then, EB3 tracks were observed under a PerkinElmer UltraVIEW ERS Spinning Disk microscope (Software: UltraVIEW ERS Imaging Suite) equipped with a Plan-APOCHROMAT × 100/1.4 Oil DIC objective, a Confocal Scanner Unit (Yokogawa CSU 22), a Hamamatsu EM CCD camera (C9100-50) and a 488-nm Argon laser at 37 °C, and time-lapse sequences were performed for 60 s with a 400-ms interval. Automatic analysis of EB3-EGFP signal tracks was performed with ImageJ (http://imagej.nih.gov/ij/) and Matlab (Mathworks) as described.

[3] = molecular target: T1, human γ-tubulin (Homo sapiens, UniProt P23258); assay: Tryptophan-based drug-binding assay, γ-tubulin; conditions: for Ratio of Kd[α/β-tubulin]/Kd[γ-tubulin]: selectivity for γ-tubulin over α/β-tubulin
T1 construct: myc (C); 6His (C); made in house; host or cells: Sf21 insect cells (baculovirus)
Experimental: In brief, 0.7 × 10^6 cells ml^−1 were infected with the γ-tubulin baculovirus. After 48 h, cells were collected by centrifugation at […] for 10 min and flash-frozen in liquid nitrogen and stored at −80 °C. Purification was carried out as described with slight modifications. […] Imidazole (final 10 mM) was added and the lysate was centrifuged again at 192,800g for 30 min at 4 °C. […] Ni-NTA Agarose was then washed twice with wash buffer 1 (lysis buffer containing 25 mM imidazole) and wash buffer 2 (50 mM MES pH 6.6, 500 mM KCl, 5 mM MgCl2, 10% glycerol, 10 μM GTP and 1 mM DTT) containing 25 mM imidazole. γ-Tubulin was eluted with wash buffer 2 containing 200 mM imidazole.
Monomeric γ-tubulin was prepared using a size exclusion column HiLoad 16/60 Superdex 200 pre-equilibrated with gel filtration buffer (50 mM MES pH 6.6, 500 mM KCl, 5 mM MgCl2, 1 mM EGTA, 10 μM GTP and 1 mM DTT). The peak fractions representing monomeric γ-tubulin were identified by A280 and confirmed using SDS–PAGE. Protein was concentrated using a Vivaspin concentrator (Sartorius) and supplemented with 10% glycerol, following snap-freezing in liquid nitrogen and storage at −80 °C.
Gel filtration buffer for γ-tubulin purification (50 mM MES pH 6.6, 500 mM KCl, 5 mM MgCl2, 1 mM EGTA and 1 mM DTT) supplemented with 10% of glycerol was used as an assay buffer. γ-tubulin and α/β-tubulin were diluted in this assay buffer to reach a final protein concentration of 1 μM. A final concentration of 10 μM or 1 mM GTP was added to the samples. Proteins were incubated for 30 min with compounds (final DMSO concentration was 1%; 2% for AG1 and gatastatin). […] Dissociation constants were calculated from fitting curves of decreasing fluorescence (ΔFL) using the GraphPad Prizm software.

[4] = molecular target: T1, human γ-tubulin; assay: Inhibition of GTP binding of γ-tubulin (α-[32P]-GTP crosslinking assay); conditions: 60 μM compound; 70 nM γ-tubulin, 100 nM α-[32P]-GTP; mean±s.d.
Experimental: For analysis of the effect of drugs on GTP binding of γ-tubulin, 70 nM of purified human γ-tubulin in GTP-binding buffer (50 mM MES, 5 mM MgCl2, 1 mM EGTA, pH 6.6) was incubated with or without compounds for 15 min at 20 °C. A final concentration of 100 nM of α-[^32P]-GTP was added and incubated at 20 °C for 30 min. After incubation, bound α-[^32P]-GTP was crosslinked to γ-tubulin for 60 s by illumination with a ultraviolet lamp using CL-1000 Ultraviolet Crosslinker. Protein with the crosslinked GTP was separated from unbound nucleotide by TCA precipitation and SDS–PAGE, and ^32P labelling was measured using a Typhoon FLA-7000 (General Electronic Company). Band intensities were quantified with the ImageJ software.

[5] = tested on: HeLa cells; assay: Transition from S phase to mitotic entry and spindle formation; assay type: cell-based, human; conditions: 30 μM
Experimental: Cells expressing EGFP-α-tubulin and mCherry-H2B were prepared as described previously. Cells were arrested at the S phase with 2-mM thymidine treatment for 15 h. To determine the time required for mitotic entry from S phase release, thymidine was removed by washing cells with PBS three times. After treatment with 30 μM gatastatin for 9 h, time-lapse analysis was performed using DeltaVision Olympus IX71 microscope (Applied Precision) equipped with CoolSNAP HQ camera (Photometrics). Images were taken every 6 min with 12 z-stack (1 μm per stack). During live cell imaging, cells were maintained at 37 °C and were supplied with 5% CO2. The timing of the mitotic entry was defined by the chromosome condensation after nuclear envelope breakdown.

T1 sequence (P23258 whole entry): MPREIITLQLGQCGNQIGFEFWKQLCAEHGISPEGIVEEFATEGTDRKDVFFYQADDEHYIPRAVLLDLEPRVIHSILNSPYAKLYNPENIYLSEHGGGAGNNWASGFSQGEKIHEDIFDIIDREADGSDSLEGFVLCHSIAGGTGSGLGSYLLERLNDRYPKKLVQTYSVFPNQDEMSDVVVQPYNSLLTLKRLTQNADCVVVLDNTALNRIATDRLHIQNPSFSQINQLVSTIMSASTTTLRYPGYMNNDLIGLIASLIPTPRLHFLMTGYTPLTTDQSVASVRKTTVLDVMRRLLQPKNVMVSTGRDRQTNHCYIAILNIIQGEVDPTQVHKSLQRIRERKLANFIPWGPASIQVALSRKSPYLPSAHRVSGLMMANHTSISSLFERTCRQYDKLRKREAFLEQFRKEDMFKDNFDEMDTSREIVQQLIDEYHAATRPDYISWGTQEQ

Ratio of Kd[α/β-tubulin]/Kd[γ-tubulin] [3]: 11.81
Ratio of Kd[α/β-tubulin]/Kd[γ-tubulin] ([3]; listed as gatastatin): 12
Kd ([3]; tryptophan fluorescence decrease, 1 μM protein, mean±s.d., three independent experiments): 3.6 ± 1.3 µM
GTP binding (control %) [4]: 6.7±3.7%
SMILES: COc1cc2c(=O)c(-c3cc(OC)c4c(c3OC)OCO4)coc2cc1OCc1ccccc1 [Gatastatin, O^7-demethylbenzyl AG1]
γ-Tubulin localization to centrosomes [1]: not affected
Track length ([2]; 3 μM): 1.03±0.16 μm
Track lifetime ([2]; 3 μM): 3.45 ± 0.71 s
Velocity ([2]; 3 μM): 12.49±1.67 μm min^−1
Track numbers ([2]; 3 μM): 94±27
Track length ([2]; 10 μM): 0.84±0.10 μm
Track lifetime ([2]; 10 μM): 3.67 ± 0.62 s
Velocity ([2]; 10 μM): 10.03±0.99 μm min^−1
Track numbers ([2]; 10 μM): 83±30
Track length ([2]; 30 μM): 0.71±0.08 μm
Track lifetime ([2]; 30 μM): 3.84 ± 0.50 s
Velocity ([2]; 30 μM): 8.43±0.81 μm min^−1
Track numbers ([2]; 30 μM): 89±32
Mitotic cells with abnormal bipolar spindles with misaligned chromosomes ([5]; HeLa cells released from S phase (thymidine)): ~80%
Timing of mitotic entry versus DMSO ([5]; HeLa released from S phase): virtually identical
